Reference: patent US20260193293A1, “PEPTIDES CAPABLE OF INHIBITING PROTEIN-PROTEIN INTERACTIONS AT GABAB1A SUBUNIT AND USES THEREOF” (UNIVERSITY OF COPENHAGEN, priority 2022, published 2026)
Like-named read-outs stand apart in the source and are kept apart here. Values belong to the molecule of their own block, whether it stands above or below them. Non-standard residues stand in square brackets, D forms with d. Residues, ends and D or L forms follow the SMILES beside them. *: point of attachment. Bn = c1ccc(C*)cc1; Sar = CNCC(=O)O

Biological target: Sushi domains (SD1/2) protein
Test: Fluorescence polarization (FP) competition assay with AJAP-1probe, calculated Ki
Assay type: binding
How it was run: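 Ki values were derived from IC50s (sigmoidal fits, ≥ triplicate), with probe Kd obtained by saturation titration of SD1/2. Peptides displaced a 25 nM TAMRA-labelled probe; polarization read at 530/580 nm in 1% BSA-containing PBS, pH 7.4, room temperature.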

[1] = Table 1, affinity maturation, mean ± SEM, n ≥ 3, read-out: Ki
[2] = Table 13, peptides for affinity maturation, read-out: Ki (nM) mean ± SEM
[3] = Table 14, CPPs tagged peptides, read-out: Ki (nM) mean ± SEM

SMILES: CC[C@H](C)[C@H](NC(=O)[C@H](Cc1c[nH]c2ccccc12)NC(=O)[C@H](CO)NC(=O)[C@H](CC(=O)O)NC(=O)[C@H](CC(=O)O)NC(=O)[C@H](CCC(=O)O)NC(C)=O)C(=O)N[C@@H](Cc1c[nH]c2ccccc12)C(=O)N[C@@H](Cc1c[nH]c2ccccc12)C(=O)N[C@@H](Cc1ccc(O)cc1)C(=O)NCC(=O)N[C@@H](C)C(=O)N[C@@H](CC(=O)O)C(=O)N[C@H](C(=O)N[C@@H](CC(=O)O)C(N)=O)[C@@H](C)O [Peptide 28] (Ac-EDDSWIWWYGADTD-NH2)
Ki [1]: 18 ± 1 nM
Ki [2]: 18 ± 1 nM

SMILES: CC[C@H](C)[C@H](NC(=O)[C@H](Cc1c[nH]c2ccccc12)NC(=O)[C@H](CC(=O)O)NC(=O)[C@H](CC(=O)O)NC(=O)[C@H](CC(=O)O)NC(=O)[C@H](CCC(=O)O)NC(=O)[C@H](CCCNC(=N)N)NC(=O)[C@H](CCCNC(=N)N)NC(=O)[C@H](CCCNC(=N)N)NC(=O)[C@H](CCCNC(=N)N)NC(=O)[C@H](CCCNC(=N)N)NC(=O)[C@H](CCCNC(=N)N)NC(=O)[C@H](CCCNC(=N)N)NC(C)=O)C(=O)N[C@@H](CC(=O)O)C(=O)N[C@@H](Cc1c[nH]c2ccccc12)C(=O)N[C@@H](Cc1ccc(O)cc1)C(=O)N[C@@H](CC(=O)O)C(=O)N[C@@H](CO)C(=O)N[C@@H](CC(=O)O)C(=O)N[C@@H](CC(=O)O)C(=O)N[C@@H](CC(=O)O)C(N)=O (Ac-RRRRRRREDDDWIDWYDSDDD-NH2)
Ki [3]: 89.1 ± 3 nM

SMILES: CC[C@H](C)[C@H](NC(=O)[C@H](Cc1ccccc1)NC(=O)[C@H](CCC(=O)O)NC(=O)[C@@H](NC(=O)[C@H](CCC(=O)O)NC(C)=O)[C@@H](C)O)C(=O)N[C@@H](C)C(=O)N[C@@H](Cc1c[nH]c2ccccc12)C(=O)NCC(=O)N1CCC[C@H]1C(=O)N[C@H](C(=O)NCC(=O)N[C@@H](C)C(=O)N[C@@H](CCC(=O)O)C(=O)N[C@@H](CC(=O)O)C(N)=O)[C@@H](C)O [ETEFIAWGPTGAED] (Ac-ETEFIAWGPTGAED-NH2)
Ki (Table 8, Ala-, D-amino acids and N-methylation scans of AJAP-1WT, read-out: Ki (nM) mean ± SEM): 50 ± 1 nM

SMILES: CC(=O)N[C@@H](CCC(=O)O)C(=O)N[C@@H](CC(=O)O)C(=O)N[C@@H](CC(=O)O)C(=O)N[C@@H](CO)C(=O)N[C@@H](CC(=O)O)C(=O)N[C@H](C(=O)N[C@@H](Cc1c[nH]c2ccccc12)C(=O)N[C@@H](Cc1c[nH]c2ccccc12)C(=O)N[C@@H](Cc1ccc(O)cc1)C(=O)NCC(=O)N(C)CC(=O)N[C@H](C(=O)NCC(=O)N[C@@H](CC(=O)O)C(=O)N[C@@H](CCC(=O)O)C(=O)N[C@@H](CC(=O)O)C(N)=O)[C@@H](C)O)C(C)C (Ac-EDDSDVWWYG[Sar]TGDED-NH2)
Ki [2]: 138 ± 5 nM

SMILES: CC[C@H](C)[C@H](NC(=O)[C@H](Cc1ccc(OCc2ccccc2)cc1)NC(=O)[C@H](CC(=O)O)NC(=O)[C@H](CC(=O)O)NC(=O)[C@H](CC(=O)O)NC(=O)[C@H](CCC(=O)O)NC(C)=O)C(=O)N[C@@H](CC(=O)O)C(=O)N[C@@H](Cc1c[nH]c2ccccc12)C(=O)NCC(=O)N1CCC[C@H]1C(=O)N[C@H](C(=O)N[C@@H](CO)C(=O)N[C@@H](CC(=O)O)C(=O)N[C@@H](CC(=O)O)C(=O)N[C@@H](CC(=O)O)C(N)=O)[C@@H](C)O [Peptide 35] (Ac-EDDDY(Bn)IDWGPTSDDD-NH2)
Ki [1]: 9.5 ± 0.3 nM
Ki (Table 16, ncAAs incorporated peptides, read-out: Ki (nM) mean ± SEM): 9.5 ± 0.3 nM

SMILES: CC[C@H](C)[C@H](NC(=O)[C@H](Cc1ccccc1)NC(=O)[C@H](CCC(=O)O)NC(=O)[C@@H](NC(=O)[C@H](CCC(=O)O)NC(C)=O)[C@@H](C)O)C(=O)N[C@@H](C)C(=O)N[C@@H](Cc1c[nH]c2ccccc12)C(=O)NCC(=O)N1CCC[C@H]1C(=O)N[C@H](C(=O)N[C@H](C(=O)N[C@@H](CO)C(=O)N[C@@H](CCCNC(=N)N)C(=O)N[C@@H](CCC(=O)O)C(=O)N[C@@H](CC(=O)O)C(N)=O)C(C)C)[C@@H](C)O [ETEFIAWGPTVSRED] (Ac-ETEFIAWGPTVSRED-NH2)
Ki [2]: 148 ± 6 nM

SMILES: CC[C@H](C)[C@H](NC(=O)[C@H](Cc1ccccc1)NC(=O)[C@H](CCC(=O)O)NC(=O)[C@@H](NC(=O)[C@H](CCC(=O)O)NC(C)=O)[C@@H](C)O)C(=O)N[C@@H](C)C(=O)N[C@@H](Cc1c[nH]c2ccccc12)C(=O)NCC(=O)N1CCC[C@H]1C(=O)N[C@H](C(=O)NCC(=O)N[C@@H](Cc1c[nH]cn1)C(=O)N[C@@H](CCC(=O)O)C(=O)N[C@@H](CC(=O)O)C(N)=O)[C@@H](C)O [ETEFIAWGPTGHED] (Ac-ETEFIAWGPTGHED-NH2)
Ki (Table 11, deep mutational scanning validation variants of AJAP-1WT, read-out: Ki (nM) mean ± SEM): 60 ± 4 nM

SMILES: CC(=O)N[C@@H](CCC(=O)O)C(=O)N[C@@H](CC(=O)O)C(=O)N[C@@H](CC(=O)O)C(=O)N[C@@H](CO)C(=O)N[C@@H](CC(=O)O)C(=O)N[C@H](C(=O)N[C@@H](Cc1c[nH]c2ccccc12)C(=O)N[C@@H](C)C(=O)NCC(=O)NCC(=O)N[C@@H](C)C(=O)N[C@@H](CC(=O)O)C(=O)N[C@H](C(=O)N[C@@H](CC(=O)O)C(N)=O)[C@@H](C)O)C(C)C (Ac-EDDSDVWAGGADTD-NH2)
Ki (Table 7, cells printed in μM, read-out: Ki (nM) mean ± SEM): > 62500 nM

The next lines start with the values.

Ki (Table 12, deep mutational scanning validation variants of PIANPWT, read-out: Ki (nM) mean ± SEM): 338 ± 1 nM
SMILES: CC[C@H](C)[C@H](NC(=O)[C@H](C)NC(=O)[C@H](Cc1c[nH]c2ccccc12)NC(=O)[C@H](CC(=O)O)NC(C)=O)C(=O)N[C@H](C(=O)N[C@@H](Cc1c[nH]c2ccccc12)C(=O)NCC(=O)N1CCC[C@H]1C(=O)N[C@H](C(=O)N[C@H](C(=O)N[C@@H](CO)C(=O)N[C@@H](CCCNC(=N)N)C(=O)N[C@@H](CCC(=O)O)C(=O)N[C@@H](CC(=O)O)C(N)=O)C(C)C)[C@@H](C)O)C(C)C [DWAIVWGPTVSRED] (Ac-DWAIVWGPTVSRED-NH2)

Ki (CPP tagged peptides overview, SD1/2 binding affinity, mean ± SEM, n ≥ 3, read-out: Ki): 314 ± 4 nM
Ki [3]: 314 ± 4 nM
SMILES: CC[C@H](C)[C@H](NC(=O)[C@H](Cc1c[nH]c2ccccc12)NC(=O)[C@H](CC(=O)O)NC(=O)[C@H](CC(=O)O)NC(=O)[C@H](CC(=O)O)NC(=O)[C@H](CCC(=O)O)NC(=O)[C@H](CCCCN)NC(=O)[C@H](C)NC(=O)[C@H](C)NC(=O)[C@H](C)NC(=O)[C@H](CCC(=O)O)NC(=O)[C@H](CCCNC(=N)N)NC(=O)[C@H](CCCNC(=N)N)NC(=O)[C@H](CCCNC(=N)N)NC(=O)[C@H](CCCNC(=N)N)NC(=O)[C@H](CCCNC(=N)N)NC(=O)[C@H](CCCNC(=N)N)NC(=O)[C@H](CCCNC(=N)N)NC(=O)[C@H](CCCNC(=N)N)NC(C)=O)C(=O)N[C@@H](CC(=O)O)C(=O)N[C@@H](Cc1c[nH]c2ccccc12)C(=O)N[C@@H](Cc1ccc(O)cc1)C(=O)N[C@@H](CC(=O)O)C(=O)N[C@@H](CO)C(=O)N[C@@H](CC(=O)O)C(=O)N[C@@H](CC(=O)O)C(=O)N[C@@H](CC(=O)O)C(N)=O [Peptide R8-RL-16] (Ac-RRRRRRRREAAAKEDDDWIDWYDSDDD-NH2)

Ki [3]: 65 ± 2 nM
SMILES: CC[C@H](C)[C@H](NC(=O)[C@H](Cc1c[nH]c2ccccc12)NC(=O)[C@H](CC(=O)O)NC(=O)[C@H](CC(=O)O)NC(=O)[C@H](CC(=O)O)NC(=O)[C@H](CCC(=O)O)NC(=O)[C@H](CCCNC(=N)N)NC(=O)[C@H](CCCNC(=N)N)NC(=O)[C@H](CCCNC(=N)N)NC(=O)[C@H](CCCNC(=N)N)NC(=O)[C@H](CCCNC(=N)N)NC(=O)[C@H](CCCNC(=N)N)NC(=O)[C@H](CCCNC(=N)N)NC(C)=O)C(=O)N[C@@H](CC(=O)O)C(=O)N[C@@H](Cc1c[nH]c2ccccc12)C(=O)NCC(=O)N1CCC[C@H]1C(=O)N[C@H](C(=O)N[C@@H](CO)C(=O)N[C@@H](CC(=O)O)C(=O)N[C@@H](CC(=O)O)C(=O)N[C@@H](CC(=O)O)C(N)=O)[C@@H](C)O (Ac-RRRRRRREDDDWIDWGPTSDDD-NH2)

Ki (Table 3, SPOT hit validation and previously reported peptides, read-out: Ki (nM) mean ± SEM): 2630 ± 97 nM
SMILES: CC(=O)N[C@@H](CC(=O)O)C(=O)N[C@@H](CC(=O)O)C(=O)N[C@@H](CO)C(=O)N[C@@H](CC(=O)O)C(=O)N[C@H](C(=O)N[C@@H](Cc1c[nH]c2ccccc12)C(=O)N[C@@H](Cc1c[nH]c2ccccc12)C(=O)NCC(=O)NCC(N)=O)C(C)C (Ac-DDSDVWWGG-NH2)
